The IC50 is the midpoint of a concentration-inhibition curve. A low value points to inhibition by little substance. As a reminder, the melting point is the temperature, or range, at which the solid turns liquid.

The results in this text go back to publication PMC7144209, “Design, synthesis and anticancer activity of naphthoquinone derivatives” (Journal of Enzyme Inhibition and Medicinal Chemistry, 2020).

In data set [1] the test system is SGC-7901. Kind of data set: MTT cell viability assay, SGC-7901 cells. The data set is classed as cell-based, human. The following applies: Homo sapiens, SGC-7901, 48 h, n = 3. The procedure: (§1) MGC-803, SGC-7901, U87 and SMMC-7721 cell lines were cultured in DMEM supplemented with 10% foetal bovine serum, 100 IU/mL penicillin/streptomycin. The cells were incubated in an atmosphere containing 5% CO2 at 37 °C.
(§2) MGC-803, SGC-7901, U87 and SMMC-7721 cells were plated in 96-well plate at 7000 per well. Cells were incubated with the different concentrations of the compounds for 48 h. Subsequently, MTT (0.5 mg/mL) were used to test the cell viability, then 150 μL DMSO was added to each well after cells were incubated for 4 h and the absorbance was measured at 492 nm.
On the technique in general: Tetrazolium dyes change colour on reduction, which living cells bring about.

The test system of data set [2] is SMMC-7721. Kind of data set: MTT cell viability assay, SMMC-7721 cells. It is filed as cell-based. The note with it: Homo sapiens, 48 h, n = 3. As to the method:
as §1, §2

The test system of data set [3] is U87. As to the kind of experiment: MTT cell viability assay, U87 cells. It is filed as cell-based. The note with it: Homo sapiens, U-87 MG, 48 h, n = 3. The procedure: as §1, §2
For data set [4], the system named is MGC-803. Kind of data set: MTT cell viability assay, MGC-803 cells. It is filed as cell-based. The following applies: Homo sapiens, MGC-803, 48 h, n = 3. As to the method: as §1, §2
For data set [5], the system named is L02. As to the kind of experiment: MTT cell viability assay, L02 cells. The data set is classed as cell-based. The following applies: Homo sapiens, n = 3.

`CC(C)=CCC(OC(=O)CCC(=O)N1CCCCC1)C1=CC(=O)c2c(O)ccc(O)c2C1=O` (stereo not drawn) [Compound 7, 1-(5,8-dihydroxy-1,4-dioxo-1,4-dihydronaphthalen-2-yl)-4-methylpent-3-en-1-yl-4-oxo-4-(piperidin-1-yl)butanoate] registered a melting point of 120 °C. Moreover, 33.6 ± 2.1 µM corresponded to half-maximal inhibition in data set [1] (IC50). For the same compound, the IC50 in data set [2] came out at 14.4 ± 1.5 µM. This compound also came in with an IC50 in data set [3] of 9.68 ± 2.3 µM. This compound yielded an IC50 in data set [4] of 9.7 ± 2.3 µM. This compound registered an IC50 in data set [5] of 36.8 ± 4.1 µM.
As for `COc1ccccc1NC(=O)CCC(=O)OC(CC=C(C)C)C1=CC(=O)c2c(O)ccc(O)c2C1=O` (stereo not drawn) [Compound 15, 1-(5,8-dihydroxy-1,4-dioxo-1,4-dihydronaphthalen-2-yl)-4-methylpent-3-en-1-yl-4-((2-methoxyphenyl)amino)-4-oxobutanoate], the melting point stood at 113 °C. This compound displayed an IC50 in data set [1] of more than 100 µM. This compound had an IC50 in data set [2] of more than 100 µM. The compound further had an IC50 in data set [3] of more than 100 µM. In data set [4], this compound had an IC50 of more than 100 µM. The same compound yielded an IC50 in data set [5] of more than 100 µM.
The compound `CC(C)=CCC(OC(=O)C=Cc1ccccc1)C1=CC(=O)c2c(O)ccc(O)c2C1=O` (stereo not drawn) [Compound 4, 1-(5,8-dihydroxy-1,4-dioxo-1,4-dihydronaphthalen-2-yl)-4-methylpent-3-en-1-yl cinnamate] yielded a melting point of 85 °C. This compound also showed an IC50 in data set [1] of 75.1 ± 0.4 µM. The IC50 in data set [3] was found to be 65.7 ± 2.7 µM. The same compound returned an IC50 in data set [4] of more than 100 µM. This compound displayed an IC50 in data set [5] of more than 100 µM.
In the case of `CCN(CC)C(=O)CCC(=O)OC(CC=C(C)C)C1=CC(=O)c2c(O)ccc(O)c2C1=O` (stereo not drawn) [Compound 22, 1-(5,8-dihydroxy-1,4-dioxo-1,4-dihydronaphthalen-2-yl)-4-methylpent-3-en-1-yl 4-(diethylamino)-4-oxobutanoate], the melting point was 77 °C. In data set [1], the IC50 came to 19.8 ± 1.8 µM. Moreover, the IC50 in data set [2] was determined as 46.5 ± 1.7 µM. Further, in data set [3], the IC50 is 40.7 ± 4.7 µM. Moreover, in data set [4], half-maximal inhibition (IC50) was put at 9.4 ± 0.4 µM. Further, in data set [5], the IC50 was more than 50 µM.
The compound `CC(C)=CCC(OC(=O)CCC(=O)Nc1ccc(Br)cc1)C1=CC(=O)c2c(O)ccc(O)c2C1=O` (stereo not drawn) [Compound 14, 1-(5,8-dihydroxy-1,4-dioxo-1,4-dihydronaphthalen-2-yl)-4-methylpent-3-en-1-yl-4-((4-bromophenyl)amino)-4-oxobutanoate] came in with a melting point of 105 °C. In data set [1], this compound gave an IC50 of 10.7 ± 1.8 µM. Further, inhibition in data set [2] was half-maximal at 14.8 ± 0.1 µM (IC50). The IC50 in data set [3] is more than 100 µM. In data set [4], this compound yielded an IC50 of 10.2 ± 1.3 µM. The compound further yielded a half-maximal inhibitory concentration (IC50) in data set [5] of 16.2 ± 1.7 µM.
Regarding `CC(C)=CCC(OC(=O)CCc1ccccc1)C1=CC(=O)c2c(O)ccc(O)c2C1=O` (stereo not drawn) [Compound 3, 1-(5,8-dihydroxy-1,4-dioxo-1,4-dihydronaphthalen-2-yl)-4-methylpent-3-en-1-yl-3-phenylpropanoate], the melting point was found to be 60 °C. The IC50 in data set [1] was 10.6 ± 4.3 µM. Besides, the IC50 in data set [2] is 15.6 ± 3.3 µM. In addition, in data set [3], inhibition was half-maximal at 8 ± 0.85 µM (IC50). Also, the midpoint of inhibition in data set [4], the IC50, lay at 4.5 ± 1.1 µM. Moreover, the IC50 in data set [5] came to 13.6 ± 1.5 µM.
As for `CC(C)=CCC(OC(=O)CCC(=O)NCCc1ccccc1Cl)C1=CC(=O)c2c(O)ccc(O)c2C1=O` (stereo not drawn) [Compound 18, 1-(5,8-dihydroxy-1,4-dioxo-1,4-dihydronaphthalen-2-yl)-4-methylpent-3-en-1-yl-4-((2-chlorophenethyl)amino)-4-oxobutanoate], the melting point came to 97.8 °C. In data set [1], this compound showed an IC50 of 23.7 ± 0.5 µM. In data set [2], this compound gave an IC50 of 17.9 ± 1.6 µM. In data set [3], this compound yielded an IC50 of 7.7 ± 4.4 µM. For the same compound, the IC50 in data set [4] was found to be 6.6 ± 4.7 µM. The same compound displayed an IC50 in data set [5] of 20.2 ± 2 µM.
As for `COc1ccc(OC)c2c1C(=O)C=C(C(O)CC=C(C)C)C2=O` (stereo not drawn) [Compound 1, 2-(1-hydroxy-4-methylpent-3-en-1-yl)-5,8-dimethoxynaphthalene-1,4-dione], the melting point was found to be 94.3 °C. In data set [1], this compound gave a concentration for half-maximal inhibition (IC50) of more than 100 µM. The compound also yielded an IC50 in data set [2] of more than 100 µM. For the same compound, the IC50 in data set [3] was more than 100 µM. This compound also displayed an IC50 in data set [4] of more than 100 µM. The IC50 in data set [5] is more than 100 µM.
On to `COc1cccc2c1C(=O)c1c(O)c3c(c(O)c1C2=O)C[C@@](O)(C(=O)CO)C[C@@H]3O[C@H]1C[C@H](N)[C@H](O)[C@H](C)O1` [ADM, Adriamycin, reference compound], for which the IC50 was 0.72 ± 0.12 µM in data set [1]; 0.46 ± 0.63 µM in data set [2]; 0.57 ± 0.32 µM in data set [3]; 0.48 ± 0.06 µM in data set [4]; more than 100 µM in data set [5].
`CC(C)=CCC(OC(=O)CCC(=O)NCCc1ccccc1F)C1=CC(=O)c2c(O)ccc(O)c2C1=O` (stereo not drawn) [Compound 21, 1-(5,8-dihydroxy-1,4-dioxo-1,4-dihydronaphthalen-2-yl)-4-methylpent-3-en-1-yl 4-((2-fluorophenethyl)amino)-4-oxobutanoate]: the melting point was 91 °C. This compound also returned an IC50 in data set [1] of 14.8 ± 1.6 µM. This compound also gave an IC50 in data set [2] of 15.4 ± 0.4 µM. It took 6.1 ± 0.6 µM to reach half-maximal inhibition in data set [3] (IC50). In data set [4], the IC50 came to 6.9 ± 3.9 µM. Further, the IC50 in data set [5] was determined as 16 ± 2.2 µM.
In turn, `CC(C)=CCC(O)C1=CC(=O)c2c(OCc3ccccc3)ccc(OCc3ccccc3)c2C1=O` (stereo not drawn) [Compound 2, 5,8-bis(benzyloxy)-2-(1-hydroxy-4-methylpent-3-en-1-yl)naphthalene-1,4-dione] had a melting point of 60 °C. The IC50 in data set [1] was more than 100 µM. Moreover, the IC50 in data set [2] is more than 100 µM. Further, the IC50 in data set [3] is more than 100 µM. Moreover, the IC50 in data set [4] is more than 100 µM. Besides, the IC50 in data set [5] is more than 100 µM.
In turn, `COc1cc(/C=C/CC(=O)OC(CC=C(C)C)C2=CC(=O)c3c(O)ccc(O)c3C2=O)cc(OC)c1OC` (stereo not drawn) [Compound 5, 1-(5,8-dihydroxy-1,4-dioxo-1,4-dihydronaphthalen-2-yl)-4-methylpent-3-en-1-yl (E)-4-(3,4,5-trimethoxyphenyl)but-3-enoate] yielded a melting point of 54 °C. In addition, the half-maximal inhibitory concentration (IC50) in data set [1] was more than 100 µM. The same compound came in with an IC50 in data set [2] of more than 100 µM. This compound gave an IC50 in data set [3] of more than 100 µM. This compound also registered an IC50 in data set [4] of more than 100 µM. Besides, the IC50 in data set [5] is more than 100 µM.
As for `CC(C)=CCC(OC(=O)COc1ccc(Cl)cc1)C1=CC(=O)c2c(O)ccc(O)c2C1=O` (stereo not drawn) [Compound 6, 1-(5,8-dihydroxy-1,4-dioxo-1,4-dihydronaphthalen-2-yl)-4-methylpent-3-en-1-yl-2-(4-chlorophenoxy)acetate], the melting point worked out at 102 °C. Moreover, the half-maximal inhibitory concentration (IC50) in data set [1] was more than 100 µM. Moreover, in data set [2], the IC50 was more than 100 µM. Moreover, the IC50 in data set [3] was more than 100 µM. The compound also gave an IC50 in data set [4] of more than 100 µM. The same compound came in with an IC50 in data set [5] of more than 100 µM.
In turn, `CC(C)=CCC(OC(=O)CCC(=O)NCCc1ccc(Br)cc1)C1=CC(=O)c2c(O)ccc(O)c2C1=O` (stereo not drawn) [Compound 19, 1-(5,8-dihydroxy-1,4-dioxo-1,4-dihydronaphthalen-2-yl)-4-methylpent-3-en-1-yl-4-((4-bromophenethyl)amino)-4-oxobutanoate] gave a melting point of 134 °C. Further, in data set [1], the half-inhibitory concentration (IC50) came to 7.6 ± 2.3 µM. For the same compound, the IC50 in data set [2] turned out to be 17.9 ± 1 µM. Also, it took 9.1 ± 2.5 µM to reach half-maximal inhibition in data set [3] (IC50). Also, in data set [4], the IC50 came out at 5.7 ± 2.4 µM. This compound also displayed a 50% inhibitory concentration (IC50) in data set [5] of 8.5 ± 0.4 µM.
On to `CC(C)=CCC(OC(=O)CCC(=O)N1CCOCC1)C1=CC(=O)c2c(O)ccc(O)c2C1=O` (stereo not drawn) [Compound 8, 1-(5,8-dihydroxy-1,4-dioxo-1,4-dihydronaphthalen-2-yl)-4-methylpent-3-en-1-yl 4-morpholino-4-oxobutanoate], for which the melting point was found to be 105 °C. The same compound came in with an IC50 in data set [1] of 20 ± 3.9 µM. In data set [2], the IC50 is 16.7 ± 1.8 µM. Also, in data set [3], inhibition was half-maximal at 10 ± 1.6 µM (IC50). The compound further yielded an IC50 in data set [4] of 10.4 ± 0.7 µM. The half-inhibitory concentration (IC50) in data set [5] is more than 50 µM.
`COc1ccc(NC(=O)CCC(=O)OC(CC=C(C)C)C2=CC(=O)c3c(O)ccc(O)c3C2=O)cc1` (stereo not drawn) [Compound 10, 1-(5,8-dihydroxy-1,4-dioxo-1,4-dihydronaphthalen-2-yl)-4-methylpent-3-en-1-yl-4-((4-methoxyphenyl)amino)-4-oxobutanoate]: the melting point came to 115 °C. The same compound showed a half-inhibitory concentration (IC50) in data set [1] of 11.1 ± 1.2 µM. This compound also showed an IC50 in data set [2] of 12.4 ± 2.6 µM. Also, inhibition in data set [3] was half-maximal at 12.3 ± 2.8 µM (IC50). Further, in data set [4], the 50% inhibitory concentration (IC50) worked out at 7.9 ± 1.8 µM. The same compound came in with an IC50 in data set [5] of 11.9 ± 0.6 µM.
As for `CCCCCCN(CCCCCC)C(=O)CCC(=O)OC(CC=C(C)C)C1=CC(=O)c2c(O)ccc(O)c2C1=O` (stereo not drawn) [Compound 23, 1-(5,8-dihydroxy-1,4-dioxo-1,4-dihydronaphthalen-2-yl)-4-methylpent-3-en-1-yl 4-(dihexylamino)-4-oxobutanoate], the IC50 in data set [1], in data set [2], in data set [3], in data set [4] and in data set [5] was more than 100 µM each time.
`CC(C)=CCC(OC(=O)CCC(=O)Nc1cccc2ccccc12)C1=CC(=O)c2c(O)ccc(O)c2C1=O` (stereo not drawn) [Compound 16, 1-(5,8-dihydroxy-1,4-dioxo-1,4-dihydronaphthalen-2-yl)-4-methylpent-3-en-1-yl-4-(naphthalen-1-ylamino)-4-oxobutanoate] showed a melting point of 127 °C. For the same compound, the IC50 in data set [1] amounted to 5.6 ± 2.6 µM. Further, inhibition in data set [2] was half-maximal at 24.3 ± 1.7 µM (IC50). Further, 5.41 ± 0.67 µM corresponded to half-maximal inhibition in data set [3] (IC50). The IC50 in data set [4] stood at 5.9 ± 2.6 µM. Also, the IC50 in data set [5] was 13 ± 2.4 µM.
